In brackets after ≈: the same amount, converted by molar mass. Like-named read-outs stand apart in the source and are kept apart here.
Legend:
Aspergillus flavus [1] = test: MIC/MFC broth microdilution (CLSI); settings: ATCC204304
Protocol: (§1) Antifungal susceptibility was determined by broth microdilution according to the CLSI guidelines described in M27-Ed4 ([16]). […] MFC was determined by back-plating drug-treated cultures from MIC broths onto SDA plates. The MFC was defined as the lowest concentration from which no colonies could be cultured.

Aspergillus fumigatus [2] = test: checkerboard drug interaction (FICI, MICc); format: cell-based;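 further: simplified diagonal checkerboard screen pairing antifungals with FPPS inhibitors against Aspergillus fumigatus, with FICI calculated under the Loewe additivity model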
Protocol: (§2) Drug interactions between antifungals and FPPS inhibitors were investigated using a simplified checkerboard diagonal screening method ([45]). […] FICIs were determined according to the Loewe additivity model ([17]).

Saccharomyces cerevisiae [3] = test: MIC/MFC broth microdilution (CLSI); format: cell-based; settings: Saccharomyces cerevisiae S288c
Protocol: as §1

Candida glabrata [4] = test: checkerboard drug interaction (FICI, MICc);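 on all read-outs here: simplified diagonal checkerboard screen pairing antifungals with FPPS inhibitors, FICI calculated under the Loewe additivity model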; format: cell-based; settings: C. glabrata; for INH FD (MIC-MICc fold decrease): fold decrease of inhibitor MIC
Protocol: as §2

Candida albicans [5] = test: MIC/MFC broth microdilution (CLSI); format: cell-based; settings: Candida albicans SC5314
Protocol: as §1

[6] = system: Cryptococcus deuterogattii; test: checkerboard drug interaction (FICI, MICc);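 on all read-outs here: simplified diagonal checkerboard screen pairing antifungal drugs with FPPS inhibitors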; format: cell-based; settings: C. deuterogattii; for INH FD (MIC-MICc fold decrease): fold decrease of inhibitor MIC
Protocol: as §2

Saccharomyces cerevisiae [7] = test: checkerboard drug interaction (FICI, MICc); format: cell-based; parameters: INH MICc / INH MICc (ITR:INH) / INH MICc (KET:INH) / INH MICc (FLC:INH): unit not given beside the values;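 further: simplified diagonal checkerboard screen pairing antifungals with FPPS inhibitors, FICI calculated under the Loewe additivity model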
HEK-293T cells = test: MTT reduction cytotoxicity assay; format: cell-based; settings: Homo sapiens, HEK-293T, 72 h, MTT, 72 h
eight fungal species [8] = test: MIC/MFC summary across the eight fungal species of Table 1; format: cell-based
Protocol: The antifungal activity of these compounds was evaluated according to CLSI guidelines ([16]).

Cryptococcus neoformans [9] = test: MIC/MFC broth microdilution (CLSI); settings: Cryptococcus neoformans;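 further: susceptibility testing followed the CLSI M27-Ed4 broth microdilution document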
Protocol: as §1

Candida albicans [10] = test: checkerboard drug interaction (FICI, MICc);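 on all read-outs here: antifungal plus FPPS inhibitor combinations on Candida albicans tested by a simplified diagonal checkerboard screen, with FICI calculated under the Loewe additivity model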; format: cell-based; settings: C. albicans; for INH FD (MIC-MICc fold decrease): fold decrease of inhibitor MIC
Protocol: as §2

Trichophyton rubrum [11] = test: checkerboard drug interaction (FICI, MICc);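 further: simplified diagonal checkerboard screen pairing azole antifungals with FPPS inhibitors, FICI calculated under the Loewe additivity model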; format: cell-based; settings: T. rubrum
Protocol: as §2

eight fungal species [12] = test: checkerboard interaction with azoles, summary across the eight species; format: cell-based; settings: geometric mean MIC in combination with azoles
Source text: Synergy between lipophilic FPPS inhibitors and azole antifungals was investigated by determining the fractional inhibitory concentration index (FICI) (Fig. 2; Table S1 Fig. S1) ([17]). […]. Derivatives PLA9 and 11, and PDA9, 11, and 12 antagonized azoles in C. albicans, C. neoformans, and C. deuterogattii, yet were largely synergistic in C. glabrata and S. cerevisiae. […].

Candida glabrata [13] = test: MIC/MFC broth microdilution (CLSI); settings: Nakaseomyces glabratus, CBS138;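 further: broth microdilution following CLSI M27-Ed4, MFC taken as the lowest drug level yielding no growth once MIC wells were subcultured on SDA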
Protocol: as §1

Aspergillus fumigatus [14] = test: MIC/MFC broth microdilution (CLSI); settings: ATCC204305
Protocol: as §1

Aspergillus flavus [15] = test: checkerboard drug interaction (FICI, MICc);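 further: simplified diagonal checkerboard screen pairing azole antifungals with FPPS inhibitors, FICI calculated under the Loewe additivity model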; format: cell-based; parameters: INH MICc (KET:INH) / INH MICc (FLC:INH): unit not given beside the values; settings: A. flavus
[16] = system: Cryptococcus deuterogattii; test: MIC/MFC broth microdilution (CLSI); settings: Cryptococcus deuterogattii;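 further: broth microdilution per CLSI M27-Ed4. MFC is the lowest concentration yielding no colonies when MIC broths are subcultured onto SDA plates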
Protocol: as §1

Trichophyton rubrum [17] = test: MIC/MFC broth microdilution (CLSI); settings: Trichophyton rubrum
Protocol: as §1

Cryptococcus neoformans [18] = test: checkerboard drug interaction (FICI, MICc);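 on all read-outs here: antifungal plus FPPS inhibitor pairs tested against Cryptococcus neoformans by simplified diagonal checkerboard screening, FICI computed under the Loewe additivity model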; format: cell-based; settings: C. neoformans; for INH FD (MIC-MICc fold decrease): fold decrease of inhibitor MIC
Protocol: as §2

[19] = Fractional Inhibitory Concentration Index, fluconazole + inhibitor
[20] = Fractional Inhibitory Concentration Index, itraconazole + inhibitor
[21] = Fractional Inhibitory Concentration Index, ketoconazole + inhibitor
[22] = MIC of the inhibitor in combination with fluconazole
[23] = MIC of the inhibitor in combination with itraconazole
[24] = MIC of the inhibitor in combination with ketoconazole
[25] = MIC-MICc fold decrease of fluconazole, negative = increase
[26] = MIC-MICc fold decrease of itraconazole, negative = increase
[27] = MIC-MICc fold decrease of ketoconazole, negative = increase
[28] = MIC-MICc fold decrease of the inhibitor, with fluconazole
[29] = MIC-MICc fold decrease of the inhibitor, with itraconazole
[30] = MIC-MICc fold decrease of the inhibitor, with ketoconazole
[31] = FLC:INH combination, MIC of the inhibitor in combination with FLC
[32] = FLC:INH combination, fold decrease of FLC MIC
[33] = ITR:INH combination, MIC of the inhibitor in combination with ITR
[34] = ITR:INH combination, fold decrease of ITR MIC
[35] = KET:INH combination, MIC of the inhibitor in combination with KET
[36] = KET:INH combination, fold decrease of KET MIC

Compound: CCCCCCCCCCCCN1CCC[C@H]1C(=O)N[C@H](CC(=O)O)C(=O)O [PDA12]
- MFC (Aspergillus flavus [1]): > 128 µg/mL
- MIC (Aspergillus flavus [1]): > 128 µg/mL
- FICI (FLC:INH) (Aspergillus fumigatus [2]; [19]): 2
- FICI (ITR:INH) (Aspergillus fumigatus [2]; [20]): 0.51
- FICI (KET:INH) (Aspergillus fumigatus [2]; [21]): 1.5
- INH MICc (FLC:INH) (Aspergillus fumigatus [2]; [22]): 256
- INH MICc (ITR:INH) (Aspergillus fumigatus [2]; [23]): 2
- INH MICc (KET:INH) (Aspergillus fumigatus [2]; [24]): 128
- FLC FD (FLC:INH) (Aspergillus fumigatus [2]; [25]): 1
- ITR FD (ITR:INH) (Aspergillus fumigatus [2]; [26]): 2
- KET FD (KET:INH) (Aspergillus fumigatus [2]; [27]): 1
- INH FD (FLC:INH) (Aspergillus fumigatus [2]; [28]): 1
- INH FD (ITR:INH) (Aspergillus fumigatus [2]; [29]): 128
- INH FD (KET:INH) (Aspergillus fumigatus [2]; [30]): 2
- MFC (Saccharomyces cerevisiae [3]): > 128 µg/mL
- MIC (Saccharomyces cerevisiae [3]): > 128 µg/mL
- FICI (Candida glabrata [4]; FLC:INH combination): 0.75
- INH MICc (Candida glabrata [4]; [31]): 8
- FLC FD (MIC-MICc fold decrease) (Candida glabrata [4]; [32]): 2
- INH FD (MIC-MICc fold decrease) (Candida glabrata [4]; FLC:INH combination): 32
- FICI (Candida glabrata [4]; ITR:INH combination): 0.31
- INH MICc (Candida glabrata [4]; [33]): 2
- ITR FD (MIC-MICc fold decrease) (Candida glabrata [4]; [34]): 4
- INH FD (MIC-MICc fold decrease) (Candida glabrata [4]; ITR:INH combination): 128
- FICI (Candida glabrata [4]; KET:INH combination): 0.31
- INH MICc (Candida glabrata [4]; [35]): 2
- KET FD (MIC-MICc fold decrease) (Candida glabrata [4]; [36]): 4
- INH FD (MIC-MICc fold decrease) (Candida glabrata [4]; KET:INH combination): 128
- MFC (Candida albicans [5]): > 128 µg/mL
- MIC (Candida albicans [5]): > 128 µg/mL
- FICI ([6]; FLC:INH combination): 2.5
- INH MICc [6, 31]: 128
- FLC FD (MIC-MICc fold decrease) [6, 32]: -2
- INH FD (MIC-MICc fold decrease) ([6]; FLC:INH combination): 2
- FICI ([6]; ITR:INH combination): ≥4
- INH MICc [6, 33]: 128
- ITR FD (MIC-MICc fold decrease) [6, 34]: -4
- INH FD (MIC-MICc fold decrease) ([6]; ITR:INH combination): 2
- FICI ([6]; KET:INH combination): 0.5
- INH MICc [6, 35]: 64
- KET FD (MIC-MICc fold decrease) [6, 36]: 4
- INH FD (MIC-MICc fold decrease) ([6]; KET:INH combination): 4
- FICI (FLC:INH) (Saccharomyces cerevisiae [7]; [19]): 0.38
- FICI (ITR:INH) (Saccharomyces cerevisiae [7]; [20]): 0.63
- FICI (KET:INH) (Saccharomyces cerevisiae [7]; [21]): 0.31
- INH MICc (FLC:INH) (Saccharomyces cerevisiae [7]; [22]): 64
- INH MICc (ITR:INH) (Saccharomyces cerevisiae [7]; [23]): 32
- INH MICc (KET:INH) (Saccharomyces cerevisiae [7]; [24]): 16
- FLC FD (FLC:INH) (Saccharomyces cerevisiae [7]; [25]): 8
- ITR FD (ITR:INH) (Saccharomyces cerevisiae [7]; [26]): 2
- KET FD (KET:INH) (Saccharomyces cerevisiae [7]; [27]): 4
- INH FD (FLC:INH) (Saccharomyces cerevisiae [7]; [28]): 4
- INH FD (ITR:INH) (Saccharomyces cerevisiae [7]; [29]): 8
- INH FD (KET:INH) (Saccharomyces cerevisiae [7]; [30]): 16
- IC50 (HEK-293T cells; HEK-293T cells, read-out: IC50): 168 µg/mL (≈ 421 µM)
- IC50 (HEK-293T cells; read-out: HEK IC50): 168 µg/mL (≈ 421 µM)
- MFC (eight fungal species [8]; across eight species, read-out: Geometric mean MFC): > 128 µg/mL
- MIC (eight fungal species [8]; geometric mean across eight species, read-out: GM fungal MIC): 235 µg/mL (≈ 589 µM)
- MIC (eight fungal species [8]; read-out: Geometric mean MIC): 235 µg/mL (≈ 589 µM)
- MFC (Cryptococcus neoformans [9]): > 128 µg/mL
- MIC (Cryptococcus neoformans [9]): > 128 µg/mL
- FICI (Candida albicans [10]; FLC:INH combination): 2.06
- INH MICc (Candida albicans [10]; [31]): 16
- FLC FD (MIC-MICc fold decrease) (Candida albicans [10]; [32]): -2
- INH FD (MIC-MICc fold decrease) (Candida albicans [10]; FLC:INH combination): 16
- FICI (Candida albicans [10]; ITR:INH combination): ≥4
- INH MICc (Candida albicans [10]; [33]): 64
- ITR FD (MIC-MICc fold decrease) (Candida albicans [10]; [34]): < -4
- INH FD (MIC-MICc fold decrease) (Candida albicans [10]; ITR:INH combination): 4
- FICI (Candida albicans [10]; KET:INH combination): ≥4
- INH MICc (Candida albicans [10]; [35]): 32
- KET FD (MIC-MICc fold decrease) (Candida albicans [10]; [36]): -4
- INH FD (MIC-MICc fold decrease) (Candida albicans [10]; KET:INH combination): 8
- FICI (FLC:INH) (Trichophyton rubrum [11]; [19]): ≥4
- FICI (ITR:INH) (Trichophyton rubrum [11]; [20]): 3
- FICI (KET:INH) (Trichophyton rubrum [11]; [21]): ≥4
- INH MICc (FLC:INH) (Trichophyton rubrum [11]; [22]): 256
- INH MICc (ITR:INH) (Trichophyton rubrum [11]; [23]): 256
- INH MICc (KET:INH) (Trichophyton rubrum [11]; [24]): 256
- FLC FD (FLC:INH) (Trichophyton rubrum [11]; [25]): -2
- ITR FD (ITR:INH) (Trichophyton rubrum [11]; [26]): 1
- KET FD (KET:INH) (Trichophyton rubrum [11]; [27]): -2
- INH FD (FLC:INH) (Trichophyton rubrum [11]; [28]): -2
- INH FD (ITR:INH) (Trichophyton rubrum [11]; [29]): -2
- INH FD (KET:INH) (Trichophyton rubrum [11]; [30]): -2
- GM fungal MICc (eight fungal species [12]): 52.3
- MFC (Candida glabrata [13]): > 128 µg/mL
- MIC (Candida glabrata [13]): > 128 µg/mL
- MFC (Aspergillus fumigatus [14]): > 128 µg/mL
- MIC (Aspergillus fumigatus [14]): > 128 µg/mL
- FICI (FLC:INH) (Aspergillus flavus [15]; [19]): 2
- FICI (ITR:INH) (Aspergillus flavus [15]; [20]): 1
- FICI (KET:INH) (Aspergillus flavus [15]; [21]): 1
- INH MICc (FLC:INH) (Aspergillus flavus [15]; [22]): 256
- INH MICc (ITR:INH) (Aspergillus flavus [15]; [23]): 128
- INH MICc (KET:INH) (Aspergillus flavus [15]; [24]): 128
- FLC FD (FLC:INH) (Aspergillus flavus [15]; [25]): 1
- ITR FD (ITR:INH) (Aspergillus flavus [15]; [26]): 2
- KET FD (KET:INH) (Aspergillus flavus [15]; [27]): 2
- INH FD (FLC:INH) (Aspergillus flavus [15]; [28]): 1
- INH FD (ITR:INH) (Aspergillus flavus [15]; [29]): 2
- INH FD (KET:INH) (Aspergillus flavus [15]; [30]): 2
- MFC [16]: > 128 µg/mL
- MIC [16]: > 128 µg/mL
- MFC (Trichophyton rubrum [17]): > 128 µg/mL
- MIC (Trichophyton rubrum [17]): 128 µg/mL (≈ 321 µM)
- FICI (Cryptococcus neoformans [18]; FLC:INH combination): ≥4
- INH MICc (Cryptococcus neoformans [18]; [31]): 128
- FLC FD (MIC-MICc fold decrease) (Cryptococcus neoformans [18]; [32]): -4
- INH FD (MIC-MICc fold decrease) (Cryptococcus neoformans [18]; FLC:INH combination): 2
- FICI (Cryptococcus neoformans [18]; ITR:INH combination): 2.25
- INH MICc (Cryptococcus neoformans [18]; [33]): 64
- ITR FD (MIC-MICc fold decrease) (Cryptococcus neoformans [18]; [34]): -2
- INH FD (MIC-MICc fold decrease) (Cryptococcus neoformans [18]; ITR:INH combination): 4
- FICI (Cryptococcus neoformans [18]; KET:INH combination): ≥4
- INH MICc (Cryptococcus neoformans [18]; [35]): 128
- KET FD (MIC-MICc fold decrease) (Cryptococcus neoformans [18]; [36]): -4
- INH FD (MIC-MICc fold decrease) (Cryptococcus neoformans [18]; KET:INH combination): 2

Reference: PMC12892976, “Alkylation-based optimization of antifungal FPPS inhibitors yields a potent, broad-spectrum lipophilic zoledronate derivative” (mBio, 2025)
